Measured values reported in patent US8288423B2, “FXa inhibitors with cyclic amidines as P4 subunit, processes for their preparations, and pharmaceutical compositions and derivatives thereof” (Legochem Bioscience Ltd., priority 2007, dated 2012).

What was measured:
[1] = tested on: thrombus formation; assay: % inhibition against thrombus formation, arteriovenous shunt model in white rats; format: in vivo, white rats (male Sprague Dawley); parameters: concentration or dose not given beside the values; details: orally administered 1 hour before opening of the shunt; 15 minutes circulation; versus control group
Description: 3) Determination of % Inhibition Against Thrombus Formation by Means of Arteriovenous Shunt Model ([…]) in White Rats Antithrombotic effect of the compounds according to the present invention was evaluated by using arteriovenous shunt model in white rats. The animals used were male Sprague Dawleys with the body weight of 200-250 g. For one day before the experiment, the animals were fasted. Five to six animals were used for each test group. The compound of Example was orally administered 1 hour before opening of the shunt. The rats were anesthetized by abdominal administration of Rompun (Bay HealthCare) and Chloral hydrate or urethane in an amount of 12 and 50 mg per kg of the body weight. Into the left carotid artery and right jugular vein of the white rat, a polyethylene(PE)-60 tubing filled with physiological saline was inserted and secured. Both ends of individual PE tubing were connected to a silicone tubing having a length of 5 cm in which a cotton thread have been incorporated diagonally, and the shunt was open to provide circulation for 15 minutes. The shunt was then compressed by using jaws, and the cotton thread was carefully removed and the thrombus generated was weighed. The % inhibition of thrombus formation was calculated by using the weight of thrombus obtained from white rats of the control group to which a solution of oral administration was administered.

[2] = tested on: Citrated plasma; assay: Measurement of PT (prothrombin time) in citrated plasma; format: biochemical; details: STA-Neoplastine, 37° C., unit not given (2×PT value)
Description: The effect of oxazolidinone derivatives with cyclic amidines represented by Chemical Formula (1) according to the invention on blood coagulation was compared by measuring PT (prothrombin time) and aPTT (activated Partial Thromboplastin Time). The procedure of measurement is described below. Citrated plasma was purchased from Daejeon-Chungnam Blood Institute (located at Daejeon, Korea). A compound solution (5 μL) according to the invention (in a various concentration gradient, 5% DMSO solution) was added to the plasma ([…]), and the reaction was carried out at 37° C. for 5 minutes. STA-Neoplastine (Diagnostica Stago) (100 μL) was then added thereto, and the duration for plasma coagulation was measured. The duration for plasma coagulation is determined as the point when the absorbance at 340 nm reaches 0.1.

[3] = tested on: plasma; assay: Measurement of aPTT (activated partial thromboplastin time) in plasma; format: biochemical; parameters: unit not given here; details: STA-PTT, CaCl2, 37° C., unit not given
Description: The effect of oxazolidinone derivatives with cyclic amidines represented by Chemical Formula (1) according to the invention on blood coagulation was compared by measuring PT (prothrombin time) and aPTT (activated Partial Thromboplastin Time). The procedure of measurement is described below. A solution (5 μL) of the oxazolidinone derivative with cyclic amidine group represented by Chemical Formula (1) according to the invention (in a various concentration gradient, 5% DMSO solution) was added to the plasma ([…]), and the reaction was carried out at 37° C. for 2 minutes. STA-PTT (Diagnostica Stago) (50 μL) was then added thereto. After the reaction at 37° C. for additional 5 minutes, 25 mM CaCl2 (50 μL) was added thereto, and the duration for plasma coagulation was measured. The duration for plasma coagulation was determined as the point when the absorbance at 340 nm reaches 0.1.

[4] = target: T1, factor Xa (Homo sapiens, UniProt P00742); assay: Inhibiting activity of factor Xa inhibitor (chromogenic substrate S-2765); format: biochemical; details: calculated from IC50 by Equation 1, Km 125 μM; S-2765 substrate, pH 7.8, 37° C.; read-out: Ki (nM), factor Xa inhibition constant
T1 construct: purchased Enzyme Research Laboratories
Description: Relative rate of hydrolysis (as compared to control group without inhibition) was plotted versus logarithm of the concentration of the oxazolidinone derivative with a cyclic amidine represented by Chemical Formula (1) according to the invention, to obtain the concentration of the inhibitor for 50% decrease in the rate of hydrolysis of the substrate.
The inhibition constant can be obtained by spectrophotometry whereby the color development is determined as a function of time, after being reacted with a specific substrate which develops color upon hydrolysis caused by action of factor Xa.
For the inhibitor solution, the inhibitor compound according to the present invention was diluted with dimethylsulfoxide (DMSO) in 10 mM, and then further diluted with third-distilled water (finally 10% DMSO solution), and the solution (10 μL) was added to each well. […] The substrate solution (20 μL) thus prepared was added to each well.
Kinetic analysis of the reaction was performed by a kinetic plate reader (Molecular Devices, Spectramax 190) at 37° C. for 20 minutes.
Relative rate of hydrolysis (compared to control group without inhibition) versus logarithm of the oxazolidinone derivative with a cyclic amidine group (Chemical Formula I) was plotted to obtain the concentration of the inhibitor to decrease the rate of hydrolysis of the substrate by 50%. GraFit (version 5.0.12) program for statistical process purchased from Erithacus Software was employed.
When inhibition constant Ki is calculated, it can be calculated according to Equation (1).

T1 sequence (P00742 235-488 limits assumed): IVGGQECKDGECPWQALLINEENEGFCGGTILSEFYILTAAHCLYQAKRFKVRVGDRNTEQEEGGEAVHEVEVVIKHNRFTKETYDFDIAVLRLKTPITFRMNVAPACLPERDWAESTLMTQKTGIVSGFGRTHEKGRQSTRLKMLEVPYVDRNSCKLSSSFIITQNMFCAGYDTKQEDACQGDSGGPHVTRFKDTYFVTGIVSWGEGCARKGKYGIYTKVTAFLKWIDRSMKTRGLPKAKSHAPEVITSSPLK
T1 sequence (P00742 41-179 partner limits assumed): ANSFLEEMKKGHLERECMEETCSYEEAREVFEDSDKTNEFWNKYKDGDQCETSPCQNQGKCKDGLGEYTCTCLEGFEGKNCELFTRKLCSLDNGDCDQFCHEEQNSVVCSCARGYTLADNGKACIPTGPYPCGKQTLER

Structure (SMILES)	% Inhibition (of thrombus formation) [1]	PT [2]	APTT [3]	Ki [4]
O=C(NC[C@H]1CN(c2ccc(C3=NCCCN3)cc2)C(=O)O1)c1ccc(Cl)s1 [Compound 106, 5-chlorothiophene-2-carboxylic acid {(S)-2-oxo-3-[4-(1,4,5,6-tetrahydropyrimidine-2-yl)-phenyl]-oxazolidin-5-ylmethyl}-amide]	0%	0.09	0.55	13.1 nM
CN1CCN=C1c1ccc(N2C[C@H](CNC(=O)c3ccc(Br)s3)OC2=O)cc1 [Compound 108, 5-bromothiophene-2-carboxylic acid {(S)-3-[4-(1-methyl-4,5-dihydro-1H-imidazol-2-yl)-phenyl]-2-oxo-oxazolidin-5-ylmethyl}-amide]	30%	0.03	0.15	2.42 nM
CCN1CCN=C1c1ccc(N2C[C@H](CNC(=O)c3ccc(Br)s3)OC2=O)cc1 [Compound 109, 5-bromothiophene-2-carboxylic acid {(S)-3-[4-(1-ethyl-4,5-dihydro-1H-imidazol-2-yl)-phenyl]-2-oxo-oxazolidin-5-ylmethyl}-amide]	26%	–	–	4.67 nM
CCN1CCN=C1c1ccc(N2C[C@H](CNC(=O)c3ccc(Cl)s3)OC2=O)cc1F [Compound 110]	38%	0.03	0.19	4.4 nM
CN1CCCN=C1c1ccc(N2C[C@H](CNC(=O)c3ccc(Cl)s3)OC2=O)cc1F [Compound 111, 5-chloro-thiophene-2-carboxylic acid {(S)-3-[3-fluoro-4-(1-methyl-1,4,5,6-tetrahydropyrimidin-2-yl)-phenyl]-2-oxo-oxazolidin-5-ylmethyl}-amide]	49%	0.03	0.28	10.5 nM
CCN1CCN=C1c1ccc(N2C[C@H](CNC(=O)c3ccc(Cl)s3)OC2=O)cc1Cl [Compound 112, 5-chlorothiophene-2-carboxylic acid {(S)-3-[3-chloro-4-(1-ethyl-4,5-dihydro-1H-imidazol-2-yl)-phenyl]-2-oxo-oxazolidin-5-ylmethyl}-amide]	26%	0.05	0.19	4.05 nM
CN1CCCN=C1c1ccc(N2C[C@H](CNC(=O)c3ccc(Cl)s3)OC2=O)cc1Cl [Compound 113, 5-chloro-thiophene-2-carboxylic acid {(S)-3-[3-chloro-4-(1-methyl-1,4,5,6-tetrahydropyrimidin-2-yl)-phenyl]-2-oxo-oxazolidin-5-ylmethyl}-amide]	53%	0.11	0.35	9.19 nM
CC1=NCCN1c1ccc(N2C[C@H](CNC(=O)c3ccc(Cl)s3)OC2=O)cc1 [Compound 114]	41%	0.03	0.12	2.45 nM
O=C(NC[C@H]1CN(c2ccc(N3C=NCC3)cc2)C(=O)O1)c1ccc(Cl)s1 [Compound 115]	–	0.34	2.61	1.29 nM
CCC1=NCCN1c1ccc(N2C[C@H](CNC(=O)c3ccc(Cl)s3)OC2=O)cc1 [Compound 116]	65%	0.05	0.18	3.46 nM
O=C(NC[C@H]1CN(c2ccc(N3CCN=C3C3CCC3)cc2)C(=O)O1)c1ccc(Cl)s1 [Compound 118]	–	0.58	–	69.9 nM
CC(C)CC1=NCCN1c1ccc(N2C[C@H](CNC(=O)c3ccc(Cl)s3)OC2=O)cc1 [Compound 119]	4%	0.03	–	3.7 nM
C=C(C)C1=NCCN1c1ccc(N2C[C@H](CNC(=O)c3ccc(Cl)s3)OC2=O)cc1 [Compound 120]	37%	0.31	–	27.9 nM
CC(C)=CC1=NCCN1c1ccc(N2C[C@H](CNC(=O)c3ccc(Cl)s3)OC2=O)cc1 [Compound 121]	35%	0.06	–	1.81 nM
O=C(NC[C@H]1CN(c2ccc(N3CCN=C3c3ccoc3)cc2)C(=O)O1)c1ccc(Cl)s1 [Compound 124]	52%	0.07	0.26	1.71 nM
O=C(NC[C@H]1CN(c2ccc(N3CCN=C3C3CCOC3)cc2)C(=O)O1)c1ccc(Cl)s1 (stereo partly shown) [Compound 125]	42%	0.05	–	2.33 nM
O=C(NC[C@H]1CN(c2ccc(N3CCN=C3c3ccncc3)cc2)C(=O)O1)c1ccc(Cl)s1 [Compound 126]	22%	0.16	–	12.8 nM
O=C(NC[C@H]1CN(c2ccc(N3CCN=C3c3cccnc3)cc2)C(=O)O1)c1ccc(Cl)s1 [Compound 127]	27%	0.12	–	6.14 nM
O=C(NC[C@H]1CN(c2ccc(N3CCN=C3c3ccccn3)cc2)C(=O)O1)c1ccc(Cl)s1 [Compound 128]	22%	0.95	–	13.9 nM
Cc1ccc(C2=NCCN2c2ccc(N3C[C@H](CNC(=O)c4ccc(Cl)s4)OC3=O)cc2)cc1 [Compound 129]	0%	0.30	–	0.92 nM
Cc1csc(C2=NCCN2c2ccc(N3C[C@H](CNC(=O)c4ccc(Cl)s4)OC3=O)cc2)n1 [Compound 130]	15%	0.94	–	8.6 nM
Cc1ccc(C2=NCCN2c2ccc(N3C[C@H](CNC(=O)c4ccc(Cl)s4)OC3=O)cc2)s1 [Compound 131]	0%	0.08	0.39	0.69 nM
O=C(NC[C@H]1CN(c2ccc(N3CCN=C3c3ccc(Cl)s3)cc2)C(=O)O1)c1ccc(Cl)s1 [Compound 132]	60%	0.29	0.88	1.09 nM
O=C(NC[C@H]1CN(c2ccc(N3CCN=C3c3cccc(Cl)c3)cc2)C(=O)O1)c1ccc(Cl)s1 [Compound 133]	44%	0.26	–	1.21 nM
O=C(NC[C@H]1CN(c2ccc(N3CCN=C3c3ccc(C(F)(F)F)cc3)cc2)C(=O)O1)c1ccc(Cl)s1 [Compound 134]	4%	0.36	–	4.01 nM
COC(=O)C1(C2=NCCN2c2ccc(N3C[C@H](CNC(=O)c4ccc(Cl)s4)OC3=O)cc2)CC1 [Compound 135]	62%	0.15	1.34	31.5 nM
COC(=O)C(C)(C)C1=NCCN1c1ccc(N2C[C@H](CNC(=O)c3ccc(Cl)s3)OC2=O)cc1 [Compound 136]	31%	0.10	–	1.78 nM
O=C(NC[C@H]1CN(c2ccc(N3CCN=C3c3ccc(Cl)s3)cc2)C(=O)O1)c1ccc(Br)s1 [Compound 140]	40%	0.24	–	2.63 nM
